From patent US6703506B2, “Amino acid ester containing azole antifungals” (Janssen Pharmaceutica, N.V., priority 1997, dated 2004)

Experiments:
[1] = Chemical stability (open glass jar, 40° C., 75% relative humidity); format: physicochemical; conditions: 50 mg, after one week
Method: After one week, the amount of test compound remaining was determined.

Aspergillus fumigatus [2] = experiment: Determination of fungal susceptibility (MIC); format: cell-based; conditions: CYG medium, 5 days at 30° C., growth to 35% of control or less
Method: (§1) A panel of Candida isolates plus single isolates of the dermatophytes Microsporum canis, Trichophyton rubrum and T. mentagrophytes; Aspergillus fumigates, and Cryptococcus neoformans were used to evaluate the activity of the test compounds in vitro. Inocula were prepared as broth cultures (yeasts) or as suspensions of fungal material made from agar slope cultures (moulds). The test compounds were pipetted from DMSO stock solution into water to provide a series of 10-fold dilutions. The fungal inocula were suspended in the growth medium CYG (F. C. Odds, Journal of Clinical Microbiology, 29, (2735-2740, 1991) at approximately 50,000 colony-forming units (CFU) per ml and added to the aqueous test drugs. The cultures were set up in the 96 wells of plastic microdilution plates and they were incubated for 2 days at 37° C. (Candida spp.) or for 5 days at 30° C. (other fungi). Growth in the microcultures was measured by their optical density (OD) measured at a wavelength of 405 nm. The OD for cultures with test compounds was calculated as a percentage of the control, drug-free OD. Inhibition of growth to 35% of control or less was recorded as significant inhibition.
(§2) Minimal inhibitory concentration (MICs; in 10^−6 M) of intermediate 2 as the major metabolite and some of the compounds of formula (I) for Candida glabrata, Candida krusel, Candida parapsilosis, Candida albicans, Candida kefyr, Candida tropicalis, Microsporum canis, Trichophyton rubrum, Trichophyton mentagrophytes, Cryptococcus neoformans, Aspergillus fumigatus are listed in table 8.

Candida albicans [3] = experiment: Determination of fungal susceptibility (MIC); format: cell-based; conditions: CYG medium, 2 days at 37° C., growth to 35% of control or less
Method: as §1, §2

Candida glabrata = experiment: Determination of fungal susceptibility (MIC); format: cell-based; conditions: CYG medium, 2 days at 37° C., growth to 35% of control or less
Method: as §1, §2

Candida kefyr = experiment: Determination of fungal susceptibility (MIC); format: cell-based; conditions: CYG medium, 2 days at 37° C., growth to 35% of control or less
Method: as §1, §2

Candida krusei = experiment: Determination of fungal susceptibility (MIC); format: cell-based; conditions: CYG medium, 2 days at 37° C., growth to 35% of control or less
Method: as §1, §2

Candida parapsilosis = experiment: Determination of fungal susceptibility (MIC); format: cell-based; conditions: CYG medium, 2 days at 37° C., growth to 35% of control or less
Method: as §1, §2

Candida tropicalis = experiment: Determination of fungal susceptibility (MIC); format: cell-based; conditions: CYG medium, 2 days at 37° C., growth to 35% of control or less
Method: as §1, §2

Cryptococcus neoformans = experiment: Determination of fungal susceptibility (MIC); format: cell-based; conditions: CYG medium, 5 days at 30° C., growth to 35% of control or less
Method: as §1, §2

Microsporum canis = experiment: Determination of fungal susceptibility (MIC); format: cell-based; conditions: CYG medium, 5 days at 30° C., growth to 35% of control or less
Method: as §1, §2

[4] = test system: Trichophyton mentagrophytes; experiment: Determination of fungal susceptibility (MIC); format: cell-based; conditions: CYG medium, 5 days at 30° C., growth to 35% of control or less
Method: as §1, §2

Trichophyton rubrum = experiment: Determination of fungal susceptibility (MIC); format: cell-based; conditions: CYG medium, 5 days at 30° C., growth to 35% of control or less
Method: as §1, §2

Aspergillus fumigatus [5] = experiment: Disseminated aspergillosis in guinea-pigs; format: in vivo; conditions: for CFU/g (liver): culture-positive livers post mortem; for % neg (total percentage culture-negative deep tissues): liver, spleen, kidney, lung and brain
Method: (§3) Specific pathogen-free (SPF) guinea-pigs (weighing 400-500 g) were used in all experiments. A catheter was placed into the left jugular vein of the animals that were treated by intravenous infusion, the vein was ligated, and the catheter was connected to a microprocessor-controlled infusion pump. The animals were infected with Aspergillus fumigatus (4,000 CFU/g body weight) or with Candida albicans (40,000 CFU/g body weight) either via the lateral vein of the penis or via the implanted catheter. Intravenous treatments (5 mg/kg/day) began 1 hour after infection. The test formulations were then administered on subsequent days as two, 1 hour infusions daily, separated by a period of 5 hours, for a total of 19 infusions or 9.5 days. Oral treatments with the test compounds (5 mg/kg/day) begun 1 hour after infection and were repeated twice daily up to the tenth day after infection (a total of 19 treatments. For each group of tested animals (number of tested animals per group given in column “N”), the mean survival time (MST) in days was recorded as well as the % survivors (% surv). Animals of each group which died during the experiment and those that survived the experiment and were killed, were investigated for counts of Aspergillus fumigatus and Candida albicans in deep tissue (liver, spleen, kidney, lung and brain) post mortem. The remaining CFU/g in the culture-positive livers was measured and expressed in table 9 (after intravenous treatment) and table 10 (after oral treatment) as mean log10 CFU/g. The columns “%neg” in tables 9 and 10 express the total percentage culture-negative deep tissues after the treatment.

Candida albicans [6] = experiment: Disseminated candidosis in guinea-pigs; format: in vivo; conditions: for CFU/g (liver): culture-positive livers post mortem; for % neg (total percentage culture-negative deep tissues): liver, spleen, kidney, lung and brain
Method: as §3

[7] = i.v. treatment 5 mg/kg/day, 19 infusions, 9.5 days
[8] = oral treatment 5 mg/kg/day, twice daily, 19 treatments

Row | Molecule | Stability (amount of test compound remaining) [1] | MIC (Aspergillus fumigatus [2]) | MIC (Candida albicans [3]) | MIC (Candida glabrata) | MIC (Candida kefyr) | MIC (Candida krusei) | MIC (Candida parapsilosis) | MIC (Candida tropicalis) | MIC (Cryptococcus neoformans) | MIC (Microsporum canis) | MIC [4] | MIC (Trichophyton rubrum) | CFU/g (liver) (Aspergillus fumigatus [5]; i.v. treatment 5 mg/kg/day) | CFU/g (liver) (Aspergillus fumigatus [5]; oral treatment 5 mg/kg/day) | % surv (% survivors) (Aspergillus fumigatus [5]; [7]) | MST (mean survival time) (Aspergillus fumigatus [5]; [7]) | % neg (total percentage culture-negative deep tissues) (Aspergillus fumigatus [5]; i.v. treatment 5 mg/kg/day) | % neg (total percentage culture-negative deep tissues) (Aspergillus fumigatus [5]; oral treatment 5 mg/kg/day) | % surv (% survivors) (Aspergillus fumigatus [5]; [8]) | MST (mean survival time) (Aspergillus fumigatus [5]; [8]) | other results
1 | C[C@H](OC(=O)CCN)[C@H](C)n1ncn(-c2ccc(N3CCN(c4ccc(OC[C@@H]5CO[C@@](Cn6cncn6)(c6ccc(F)cc6F)O5)cc4)CC3)cc2)c1=O.O.O=C(O)C[C@H](O)C(=O)O.O=C(O)C[C@H](O)C(=O)O (relative stereo) [Compound 12, [2S-[2α,4α-[(R*,R*)]]]-2-[4-[4-[4-[4-[[2-(2,4-difluorophenyl)-2-(1H-1,2,4-triazol-1-ylmethyl)-1,3-dioxolan-4-yl]methoxy]phenyl]-1-piperazinyl]phenyl]-4,5-dihydro-5-oxo-1H-1,2,4-triazol-1-yl]-1-methylpropyl β-alanine (S)-hydroxybutanedioate(1:2) monohydrate] | 96.1% | – | – | – | – | – | – | – | – | – | – | – | – | – | – | – | – | – | – | – | –
2 | CC(OC(=O)CCN)C(C)n1ncn(-c2ccc(N3CCN(c4ccc(OCC5COC(Cn6cncn6)(c6ccc(F)cc6F)O5)cc4)CC3)cc2)c1=O.O.O=C(O)C(=O)O (stereo not drawn) [Compound 13] | 98.3% | – | – | – | – | – | – | – | – | – | – | – | – | – | – | – | – | – | – | – | –
3 | CCN(CC)CC(=O)OC(C)C(C)n1ncn(-c2ccc(N3CCN(c4ccc(OCC5COC(Cn6cncn6)(c6ccc(F)cc6F)O5)cc4)CC3)cc2)c1=O.O=C(O)C=CC(=O)O (stereo not drawn) [Compound 16, [2S-[2α,4α-[(R*,R*)]]]-2-[4-[4-[4-[4-[[2-(2,4-difluorophenyl)-2-(1H-1,2,4-triazol-1-ylmethyl)-1,3-dioxolan-4-yl]methoxy]phenyl]-1-piperazinyl]phenyl]-4,5-dihydro-5-oxo-1H-1,2,4-triazol-1-yl]-1-methylpropyl N,N-diethylglycine (E)-2-butenedioate] | 100.3% | 1 10^−6 M | <0.1 10^−6 M | 10 10^−6 M | <0.1 10^−6 M | 1 10^−6 M | <0.1 10^−6 M | <0.1 10^−6 M | 1 10^−6 M | 1 10^−6 M | 1 10^−6 M | <0.1 10^−6 M | 3.4 mean log10 CFU/g | 3.1 mean log10 CFU/g | 16.7% | 6.8 days | 29% | 48% | 40% | 6.5 days | CFU/g (liver) (Candida albicans [6]; i.v. treatment 5 mg/kg/day): 0 mean log10 CFU/g; CFU/g (liver) (Candida albicans [6]; oral treatment 5 mg/kg/day): 0 mean log10 CFU/g; % surv (% survivors) (Candida albicans [6]; [7]): 66.7%; MST (mean survival time) (Candida albicans [6]; [7]): 9.3 days; % neg (total percentage culture-negative deep tissues) (Candida albicans [6]; i.v. treatment 5 mg/kg/day): 79%; % neg (total percentage culture-negative deep tissues) (Candida albicans [6]; oral treatment 5 mg/kg/day): 73%; % surv (% survivors) (Candida albicans [6]; [8]): 90%; MST (mean survival time) (Candida albicans [6]; [8]): 9.6 days
4 | CCN(CC)CCC(=O)OC(C)C(C)n1ncn(-c2ccc(N3CCN(c4ccc(OCC5COC(Cn6cncn6)(c6ccc(F)cc6F)O5)cc4)CC3)cc2)c1=O.O.O=C(O)C=CC(=O)O (stereo not drawn) [Compound 15] | 90.4% | – | – | – | – | – | – | – | – | – | – | – | – | – | – | – | – | – | – | – | –
5 | CC(C)CC(N)C(=O)OC(C)C(C)n1ncn(-c2ccc(N3CCN(c4ccc(OCC5COC(Cn6cncn6)(c6ccc(F)cc6F)O5)cc4)CC3)cc2)c1=O (stereo not drawn) [Compound 21] | 100.3% | 1 10^−6 M | 0.1 10^−6 M | 10 10^−6 M | 0.1 10^−6 M | 1 10^−6 M | 0.1 10^−6 M | 0.1 10^−6 M | 1 10^−6 M | 1 10^−6 M | 1 10^−6 M | <0.1 10^−6 M | 3.7 mean log10 CFU/g | 3.0 mean log10 CFU/g | 0% | 5.7 days | 46% | 55% | 40% | 7.0 days | CFU/g (liver) (Candida albicans [6]; i.v. treatment 5 mg/kg/day): 2.7 mean log10 CFU/g; CFU/g (liver) (Candida albicans [6]; oral treatment 5 mg/kg/day): 0 mean log10 CFU/g; % surv (% survivors) (Candida albicans [6]; [7]): 16.7%; MST (mean survival time) (Candida albicans [6]; [7]): 6.5 days; % neg (total percentage culture-negative deep tissues) (Candida albicans [6]; i.v. treatment 5 mg/kg/day): 75%; % neg (total percentage culture-negative deep tissues) (Candida albicans [6]; oral treatment 5 mg/kg/day): 83%; % surv (% survivors) (Candida albicans [6]; [8]): 90%; MST (mean survival time) (Candida albicans [6]; [8]): 9.6 days
6 | CC(C)C(N)C(=O)OC(C)C(C)n1ncn(-c2ccc(N3CCN(c4ccc(OCC5COC(Cn6cncn6)(c6ccc(F)cc6F)O5)cc4)CC3)cc2)c1=O (stereo not drawn) [Compound 18] | 101.7% | 1 10^−6 M | <0.1 10^−6 M | 10 10^−6 M | <0.1 10^−6 M | 1 10^−6 M | <0.1 10^−6 M | <0.1 10^−6 M | 1 10^−6 M | 10 10^−6 M | 1 10^−6 M | 10 10^−6 M | 3.1 mean log10 CFU/g | 3.2 mean log10 CFU/g | 16.7% | 5.3 days | 29% | 20% | 0% | 5.2 days | CFU/g (liver) (Candida albicans [6]; i.v. treatment 5 mg/kg/day): 0 mean log10 CFU/g; CFU/g (liver) (Candida albicans [6]; oral treatment 5 mg/kg/day): 0 mean log10 CFU/g; % surv (% survivors) (Candida albicans [6]; [7]): 66.7%; MST (mean survival time) (Candida albicans [6]; [7]): 9.2 days; % neg (total percentage culture-negative deep tissues) (Candida albicans [6]; i.v. treatment 5 mg/kg/day): 92%; % neg (total percentage culture-negative deep tissues) (Candida albicans [6]; oral treatment 5 mg/kg/day): 68%; % surv (% survivors) (Candida albicans [6]; [8]): 100%; MST (mean survival time) (Candida albicans [6]; [8]): 10 days
7 | [2S-[2α,4α[(R*,R*)]]]-4-[4-[4-[4-[[2-(2,4-difluorophenyl)-2-(1H-1,2,4-triazol-1-ylmethyl)-1,3-dioxolan-4-yl]methoxy]-phenyl]-1-piperazinyl]phenyl]-2,4-dihydro-2-(2-hydroxy-1-methylpropyl)-3H-1,2,4-triazol-3-one [Interm. 2a] | – | 1 10^−6 M | 10 10^−6 M | 10 10^−6 M | <0.1 10^−6 M | 1 10^−6 M | 1 10^−6 M | 1 10^−6 M | 1 10^−6 M | 1 10^−6 M | 1 10^−6 M | 1 10^−6 M | – | – | – | – | – | – | – | – | –
8 | CC(N)C(=O)OC(C)C(C)n1ncn(-c2ccc(N3CCN(c4ccc(OCC5COC(Cn6cncn6)(c6ccc(F)cc6F)O5)cc4)CC3)cc2)c1=O.O.O=C(O)CCC(=O)O (stereo not drawn) [Compound 10] | 31.0% | – | – | – | – | – | – | – | – | – | – | – | – | – | – | – | – | – | – | – | –
